Results reported in PubChem BioAssay AID2060501 (Molecular Pharmacology Branch, DTP, NCI, 2025).
One block for each molecule: values may come before it.

Tested on: 282377-053-R-J1-PDC complex spheroids, viability
Assay: Anticancer human tumor 282377-053-R-J1-PDC patient-derived colon adenocarcinoma cell line growth inhibition [GQUAD]
Conditions: for IC50: curve of first compound; for viability, T/C: stronger effect = lower value
In short: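 Viability of tumor cells grown as complex spheroids with endothelial and stromal cells, exposed to drug combinations. Top concentration at or near clinical Cmax (else 10 microM), diluted in half-log increments.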

[1] = second compound 0.0316 µM, first compound 0.0316 µM
[2] = second compound 0.0316 µM, first compound 0.1 µM
[3] = second compound 0.0316 µM, first compound 0.316 µM
[4] = second compound 0.0316 µM, first compound 1 µM
[5] = second compound 0.0316 µM, first compound 3.16 µM
[6] = second compound 0.0316 µM, first compound 10 µM
[7] = second compound 0.1 µM, first compound 0.0316 µM
[8] = second compound 0.1 µM, first compound 0.1 µM
[9] = second compound 0.1 µM, first compound 0.316 µM
[10] = second compound 0.1 µM, first compound 1 µM
[11] = second compound 0.1 µM, first compound 3.16 µM
[12] = second compound 0.1 µM, first compound 10 µM
[13] = second compound 0.316 µM, first compound 0.0316 µM
[14] = second compound 0.316 µM, first compound 0.1 µM
[15] = second compound 0.316 µM, first compound 0.316 µM
[16] = second compound 0.316 µM, first compound 1 µM
[17] = second compound 0.316 µM, first compound 3.16 µM
[18] = second compound 0.316 µM, first compound 10 µM
[19] = second compound 1 µM, first compound 0.0316 µM
[20] = second compound 1 µM, first compound 0.1 µM
[21] = second compound 1 µM, first compound 0.316 µM
[22] = second compound 1 µM, first compound 1 µM
[23] = second compound 1 µM, first compound 3.16 µM
[24] = second compound 1 µM, first compound 10 µM
[25] = second compound 3.16 µM, first compound 0.0316 µM
[26] = second compound 3.16 µM, first compound 0.1 µM
[27] = second compound 3.16 µM, first compound 0.316 µM
[28] = second compound 3.16 µM, first compound 1 µM
[29] = second compound 3.16 µM, first compound 3.16 µM
[30] = second compound 3.16 µM, first compound 10 µM
[31] = second compound 10 µM, first compound 0.0316 µM
[32] = second compound 10 µM, first compound 0.1 µM
[33] = second compound 10 µM, first compound 0.316 µM
[34] = second compound 10 µM, first compound 1 µM
[35] = second compound 10 µM, first compound 3.16 µM
[36] = second compound 10 µM, first compound 10 µM
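Also: spheroids exposed to compounds for 7 days before readout.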
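For viability, T/C in this document: percent of vehicle DMSO control viability with 100% = untreated-like growth.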

IC50 (second compound 0.0316 µM): < 0.0316 µM
IC50 (second compound 0.1 µM): < 0.0316 µM
IC50 (second compound 0.316 µM): < 0.0316 µM
IC50 (second compound 1 µM): < 0.0316 µM
IC50 (second compound 3.16 µM): < 0.0316 µM
IC50 (second compound 10 µM): < 0.0316 µM
Compound: CC(=O)O[C@H]1C(=O)[C@@]2(C)[C@H]([C@H](OC(=O)c3ccccc3)[C@]3(O)C[C@H](OC(=O)[C@H](O)[C@@H](NC(=O)c4ccccc4)c4ccccc4)C(C)=C1C3(C)C)[C@]1(OC(C)=O)CO[C@@H]1C[C@@H]2O + Cc1cnc(CNC(=O)c2c(=O)c3ccc(N4CCCN(C)CC4)nc3n3c2sc2ccccc23)cn1
viability, T/C [1]: 42.7%
viability, T/C [2]: 17.2%
viability, T/C [3]: 21.4%
viability, T/C [4]: 18.4%
viability, T/C [5]: 20.4%
viability, T/C [6]: 24.9%
viability, T/C [7]: 44.1%
viability, T/C [8]: 22.9%
viability, T/C [9]: 23.9%
viability, T/C [10]: 21.6%
viability, T/C [11]: 26.1%
viability, T/C [12]: 27.9%
viability, T/C [13]: 47.7%
viability, T/C [14]: 24.4%
viability, T/C [15]: 24.9%
viability, T/C [16]: 31.5%
viability, T/C [17]: 33.7%
viability, T/C [18]: 33.9%
viability, T/C [19]: 38.1%
viability, T/C [20]: 26.6%
viability, T/C [21]: 24.6%
viability, T/C [22]: 32.1%
viability, T/C [23]: 35.2%
viability, T/C [24]: 31.4%
viability, T/C [25]: 37.8%
viability, T/C [26]: 23.8%
viability, T/C [27]: 29.8%
viability, T/C [28]: 25.2%
viability, T/C [29]: 28.4%
viability, T/C [30]: 30.4%
viability, T/C [31]: 25.5%
viability, T/C [32]: 17%
viability, T/C [33]: 23%
viability, T/C [34]: 24.1%
viability, T/C [35]: 35.6%
viability, T/C [36]: 18.4%

Compound: CC1COCCN1c1cc(C2(O)CC3CCC(C2)O3)c2cnn(-c3ccn[nH]3)c2n1 (stereo unspecified) + CN(C)c1ccc(Nc2c3ccc(NC(=O)CCN4CCCC4)cc3nc3cc(NC(=O)CCN4CCCC4)ccc23)cc1
IC50 (second compound 0.0316 µM): 0.73 µM
IC50 (second compound 0.1 µM): 0.425 µM
IC50 (second compound 0.316 µM): 0.632 µM
IC50 (second compound 1 µM): 0.649 µM
IC50 (second compound 3.16 µM): 0.825 µM
IC50 (second compound 10 µM): 0.734 µM
viability, T/C [1]: 93.4%
viability, T/C [2]: 81.5%
viability, T/C [3]: 65.1%
viability, T/C [4]: 44.9%
viability, T/C [5]: 28.1%
viability, T/C [6]: 20.9%
viability, T/C [7]: 82.5%
viability, T/C [8]: 87.5%
viability, T/C [9]: 55.4%
viability, T/C [10]: 37.3%
viability, T/C [11]: 37.6%
viability, T/C [12]: 22.6%
viability, T/C [13]: 87.2%
viability, T/C [14]: 92.6%
viability, T/C [15]: 58.3%
viability, T/C [16]: 42.3%
viability, T/C [17]: 34.8%
viability, T/C [18]: 20.6%
viability, T/C [19]: 102%
viability, T/C [20]: 89%
viability, T/C [21]: 63.6%
viability, T/C [22]: 41%
viability, T/C [23]: 29.8%
viability, T/C [24]: 21.5%
viability, T/C [25]: 81.9%
viability, T/C [26]: 81.2%
viability, T/C [27]: 80.9%
viability, T/C [28]: 43.7%
viability, T/C [29]: 33.3%
viability, T/C [30]: 23.4%
viability, T/C [31]: 93%
viability, T/C [32]: 72.8%
viability, T/C [33]: 86.6%
viability, T/C [34]: 37.5%
viability, T/C [35]: 28.6%
viability, T/C [36]: 21.3%

Compound: O=c1[nH]cc(F)c(=O)[nH]1 + CN(C)c1ccc(Nc2c3ccc(NC(=O)CCN4CCCC4)cc3nc3cc(NC(=O)CCN4CCCC4)ccc23)cc1
IC50 (second compound 0.0316 µM): > 10 µM
IC50 (second compound 0.1 µM): > 10 µM
IC50 (second compound 0.316 µM): > 10 µM
IC50 (second compound 1 µM): > 10 µM
IC50 (second compound 3.16 µM): > 10 µM
IC50 (second compound 10 µM): > 10 µM
viability, T/C [1]: 95.5%
viability, T/C [2]: 87.1%
viability, T/C [3]: 110%
viability, T/C [4]: 81%
viability, T/C [5]: 73.4%
viability, T/C [6]: 74.1%
viability, T/C [7]: 101%
viability, T/C [8]: 93.1%
viability, T/C [9]: 104%
viability, T/C [10]: 88.8%
viability, T/C [11]: 74.5%
viability, T/C [12]: 73.2%
viability, T/C [13]: 106%
viability, T/C [14]: 94.3%
viability, T/C [15]: 106%
viability, T/C [16]: 96%
viability, T/C [17]: 67.8%
viability, T/C [18]: 73.8%
viability, T/C [19]: 108%
viability, T/C [20]: 94.4%
viability, T/C [21]: 106%
viability, T/C [22]: 89.9%
viability, T/C [23]: 77.8%
viability, T/C [24]: 69%
viability, T/C [25]: 83.1%
viability, T/C [26]: 75.7%
viability, T/C [27]: 89.2%
viability, T/C [28]: 79.1%
viability, T/C [29]: 68.2%
viability, T/C [30]: 64.5%
viability, T/C [31]: 92.8%
viability, T/C [32]: 81.3%
viability, T/C [33]: 88.5%
viability, T/C [34]: 81.7%
viability, T/C [35]: 70.1%
viability, T/C [36]: 57.9%
